# Test results: patent US9610359B2, “Methods and compositions related to annexin 1-binding compounds” (Burnham Institute for Medical Research, priority 2009, dated 2017)
# No end group written: not given here.
# Assays:
# B16 tumor = test: in vivo phage targeting in B16 tumor-bearing mice; parameters: species or system mouse
# Description: (§1) FIGS. 1A-1H show the essential role of annexin 1 (Anxa1) in tumor growth and identification of a peptide sequence with tumor vasculature targeting activity in vivo. A and B. Growth of B16 tumors subcutaneously injected into Anxa1(+/−) and Anxa1(−/−) mutant mice. C. Histology of B16 tumors produced in Anxa1(+/−) and Anxa1(−/−) mice. Each scale bar represents 2.00 mm. D. Immunohistochemistry of B16 tumors for CD31 showing endothelial cells and vasculature. Each scale bar represents 200 μm. E. In vivo phage targeting in B16 tumor-bearing mice. Numbers of transformed colonies recovered from the tumor or lung were determined. […] F. In vivo tumor and organ targeting activity of IFLLWQR (SEQ ID NO:2) displaying phage. Phage was injected into B16 tumor bearing mice pre-injected with anti-Anxa1 antibody or with control rabbit IgG. G. In vitro plate assay for binding of IF7-A488 (upper line) and control RQ7-A488C (lower line) to recombinant […] protein produced by bacteria. H. Effect of IF7 (upper line) and control RQ7 (lower line) on binding of FITC-labeled polyacrylamide-LeA oligosaccharide to Anxa1-His6 protein.
# Mouse melanoma B16F1 cells (2×10^5 cells/100 μl PBS) were injected subcutaneously into the dorsal flank of C57BL/6 female mice (8-10 weeks old). […] Colonies appearing on an agar plate after culturing at 37° C. for 20 hours were counted.
# [1] = system: Mouse melanoma B16F1 tumors; type: in vivo; details: B16 melanoma, 0.13 μmoles iv
# Description: (a) Mouse melanoma B16F1 tumors were grown subcutaneously in C57BL6 mice. On day 10, each mouse was injected intravenously with either 100 μl of 5% glucose or that containing 0.13 μmoles of each IF7, GA, or IF7-GA. Injections were administered every other day, for a total of three injections, until day 14. […] B, Histochemistry of tumors from the mice intravenously injected with the compounds described in A. Apoptotic tumor cells along blood vessels in transplanted tumors are detected by TUNEL assay. B16 melanoma (a), LLC lung carcinoma (b), PC3 prostate tumor (c) and MDA-MB-231 breast tumor (d) from mice treated with each compound.
# Injections were administered every other day, for a total of 7 injections, until day 26, as shown by arrows.
# [2] = system: Human breast cancer MDA-MB-231 tumors; test: orthotopic MDA-MB-231 breast cancer model in SCID mice; type: in vivo; details: MDA-MB-231 breast tumor, 0.13 μmoles iv
# Description: (§2) FIGS. 6A and 6B show the effect of IF7-GA on melanoma, lung carcinoma, prostate cancer, and breast cancer mouse models. A, Effect of IF7-GA on tumor size. […] Mice were euthanised on day 15 to measure tumor weight. […] Mice were euthanised on day 13 and tumors weighed. (c) Human prostate cancer PC3 tumors were grown orthotopically in the prostate of SCID mice. On day 7, each mouse was injected intravenously with the compounds as in A-a, and injections administered every 4 days, for a total of four injections, until day 22. Mice were euthanised on day 28 and tumors weighed. (d) Human breast cancer MDA-MB-231 tumors were grown orthotopically in fat pads of SCID mice. On day 7, each mouse was injected intravenously with the compounds as in A-a, and injections performed every 4 days, for a total of four injections, until day 22. […] B, Histochemistry of tumors from the mice intravenously injected with the compounds described in A. Apoptotic tumor cells along blood vessels in transplanted tumors are detected by TUNEL assay. […]
# (§3) Mouse melanoma B16F1 cells (2×10^5 cells/100 μl serum-free DMEM) were injected subcutaneously into the dorsal flank of C57BL/6 female mice (8-10 weeks old). […] On day 15, mice were sacrificed and tumor weights determined. […] On day 13, mice were sacrificed and tumor weights determined. […] On day 28, mice were sacrificed and prostate tumor weights determined. […]
# Anxa1-His protein [3] = biological target: T1, Anxa1-His protein (Homo sapiens, UniProt P04083); test: surface plasmon resonance on Anxa1 coated chip; type: binding; details: qualitative
# T1 construct: Full-length cDNA encoding Anxa1 was obtained from Invitrogen (Carlsbad, Calif.) and subcloned into pET29a vector; His6 (C); made in house; host or cells: bacteria (pET29a vector, Novagen)
# T1 sequence (P04083 1-346): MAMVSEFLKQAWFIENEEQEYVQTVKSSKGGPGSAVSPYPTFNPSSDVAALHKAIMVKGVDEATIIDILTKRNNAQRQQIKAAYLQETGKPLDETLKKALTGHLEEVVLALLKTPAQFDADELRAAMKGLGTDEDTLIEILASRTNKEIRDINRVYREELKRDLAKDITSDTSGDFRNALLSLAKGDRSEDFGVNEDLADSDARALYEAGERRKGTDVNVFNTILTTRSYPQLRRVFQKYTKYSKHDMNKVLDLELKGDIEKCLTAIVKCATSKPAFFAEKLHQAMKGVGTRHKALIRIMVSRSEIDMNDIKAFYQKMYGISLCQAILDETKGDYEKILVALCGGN
# Description: IASys (Affinity Sensors, Cambridge, UK) was used. Anxa1-His protein was immobilized on the sensor chip by cross-linking to the aminosilane surface using bis[sulfosuccinimidyl] substrate (Pierce). Binding of IF7C dissolved in TBSC was recorded for 2 min, and dissociation of IF7C was initiated by adding TBSC to the sensor chip and the arc second was recorded for 5 min.
# Anxa1-His6 protein = biological target: T2, Anxa1-His6 protein (Homo sapiens, UniProt P04083); test: inhibition of binding of FITC-labeled polyacrylamide-LeA oligosaccharide to Anxa1-His6
# T2 construct: Full-length cDNA encoding Anxa1 was obtained from Invitrogen (Carlsbad, Calif.) and subcloned into pET29a vector; His6 (C); made in house; host or cells: bacteria (pET29a vector, Novagen)
# T2 sequence (P04083 1-346): T1 sequence (P04083 1-346)
# Description: as §1
# Full-length cDNA encoding Anxa1 was obtained from Invitrogen (Carlsbad, Calif.) and subcloned into pET29a vector (Novagen) to produce an […] fusion protein. […] After washing the plate, fluorescence was measured by a Molecular Devices Analyst HT plate reader. […]
# Anxa1-His protein [4] = biological target: T1, Anxa1-His protein; test: isothermal titration calorimetry (ITC) with Anxa1-His protein; type: binding; details: qualitative
# Description: ITC was performed on a VP-ITC calorimeter from Microcal (Northampton, Mass.). In this analysis IF7K3C peptide or […] (SEQ ID NO:12), in which IF7 was modified by inserted with three lysine residues between IF7 and C to increase solubility in water. Eight μl aliquots of solution containing 1.0 or 1.5 mM were injected into the cell containing 100 or 150 μM Anxa1-His protein. In each experiment 37 injections were made. The experiments were performed at 23° C. in buffer containing 20 mM Tris pH 7.9, 250 mM NaCl, 1 mM CaCl2 and 10% dimethylsulfoxide. Experimental data were analyzed using Microcal Origin software provided by the ITC manufacturer (Microcal, Northampton, Mass.).
# [5] = system: Mouse Lewis lung carcinoma (LLC) tumors; test: subcutaneous Lewis lung carcinoma tumor model; type: in vivo; details: 0.13 μmoles iv
# Description: as §2, §3
# [6] = system: Human prostate cancer PC3 tumors; test: orthotopic PC3 prostate cancer model in SCID mice; type: in vivo; details: 0.13 μmoles iv
# Description: as §2, §3
# [7] = system: annexin 1 (Anxa1) fragment; details: cited from earlier work
# normal lung = details: through pre-mRNA splicing factors; cited from earlier work
# [8] = system: carbohydrate-dependent cancer cell colonization to the lung; details: synthetic peptide injected intravenously into mice; cited from earlier work
# [9] = system: Anxa1-expressing mouse endothelial F-2 cells; test: binding to the surface of F-2 cells cultured in vitro; type: cell-based
# Description: (§4) A. Binding of IF7C(RR)-conjugated FITC-polylysine on the surface of mouse endothelial F-2 cells cultured in vitro. B. Transport of […] FITC-poly-L-lysine through apical surface to basal space of F-2 cells monolayer. F-2 cells cultured on a filter of trans well insert was added with IF7C(RR)-conjugated FITC-poly-L-lysine to allow the reagent being bound to apical cell surface of F-2 cells. After washing the monolayer with medium, insert was placed in wells containing medium at 37° C. or at 4° C. Fluorescence moved to the lower chamber of insert was measured. C. Targeting and penetration of intravenously injected IF7C(RR)-conjugated FITC-poly-L-lysine in the B16 tumor in vivo in the mouse. Tissue section was immunostained for endothelial cell marker CD31.
# (§5) Thus IFLLWQR-C-RR (SEQ ID NO: 17) or IF7C(RR) was synthesized. […] The cytoplasmic and nuclear FITC signals are consistent with the localization of Anxa1 in the cytoplasm and nucleus (Gerke, 2005 #5299). […] (FIG. 12B). […] To determine if the binding and transport of IF7C(RR) occur in vivo in the tumor vasculature, IF7C(RR)-conjugated FITC-poly-L-lysine was injected intravenously into a B16 tumor-bearing mouse. […] Small molecules such as SN-38 conjugated with IF7C(RR) can penetrate to the tumor deeper and faster than the large molecule such as poly-L-lysine.
# B16 tumor vasculature = test: targeting and penetration in B16 tumor vasculature after intravenous injection; type: in vivo; details: B16 tumor-bearing mouse
# Description: as §4, §5
# F-2 cells monolayer = test: transport through F-2 cell monolayer in trans well chamber; type: cell-based, mouse
# Description: as §4, §5
substance,measurement,setting,value
IFLLWQR (annexin-1 binding compound) [IF7],targeting to the lung in tumor-bearing mice,"B16 tumor; mouse, in vivo",could not be detected
same,organ targeting of intravenously injected phage clone,"B16 tumor; tumor versus lung, B16 tumor-bearing mice",targets tumor but not lung tissue
same,"apoptosis of perivascular tumor cells (TUNEL, histochemistry)",[1],rarely show apoptosis
same,apoptosis of perivascular tumor cells (TUNEL),[2],rarely show apoptosis
same,binding to Anxa1 by surface plasmon resonance,Anxa1-His protein [3],confirmed
same,inhibition of fucosylated carbohydrate (LeA) binding to Anxa1,Anxa1-His6 protein,inhibited by IF7
same,binding to Anxa1 by isothermal titration assay,Anxa1-His protein [4],confirmed
same,apoptosis of perivascular tumor cells (TUNEL),[5],rarely show apoptosis
same,apoptosis of perivascular tumor cells (TUNEL),[6],rarely show apoptosis
"IELLQAR [I-peptide, selectin ligand mimicry peptide]",binding to annexin 1 fragment,[7],bound to an annexin 1 (Anxa1) fragment
same,targeting to normal lung,normal lung,also targets to normal lung
same,cancer cell colonization to the lung,[8],inhibited carbohydrate-dependent cancer cell colonization to the lung
"IF7C(RR)-conjugated FITC-poly-L-lysine: IF7C(RR) conjugated to FITC-poly-L-lysine (IFLLWQRCRR; also: conjugated to FITC-poly-L-lysine, site not given here)",binding to the surface of F-2 cells,[9],bound to the surface of Anxa1-expressing mouse endothelial F-2 cells
same,localization of fluorescence in tumor tissue sections,B16 tumor vasculature,green fluorescence signals around the abluminal area of the vasculatures
same,transport of fluorescence to the lower chamber at 4° C.,F-2 cells monolayer; 4° C.,not at 4 °C
same,transport of fluorescence to the lower chamber at 37° C.,F-2 cells monolayer; 37° C.,fluorescence migrated to the lower chamber
